# Results from USRE39221E1, “Composition comprising a tramadol material and acetaminophen and its use” (priority 1991, dated 2006).
# Read-outs that look alike come from different tables or passages of the source.
# Test system: acetylcholine-induced abdominal constriction
# Test: prevention of acetylcholine-induced abdominal constriction in mice (analgesic activity)
# Format: in vivo, mice (male CD1)
# Conditions: for ED50: Mus musculus, po, 0.5 h; for analgesia: 30 min
# Procedure: Male CD1 mice (weighing from 18-24 g) were utilized in determining the analgesic effects associated with the compositions of the invention. The mice were all dosed orally with tramadol hydrochloride (calculated as the base), which was completely dissolved in distilled water, and acetaminophen (calculated as the base), which was completely dissolved in distilled water or in distilled water containing 2% by volume of Tween 80 containing 100% polysorbate 80. The dosing volume was 10 mL/kg.
# The procedure used in detecting and comparing the analgesic activity of different classes of analgesia drugs for which there is a good correlation with human efficacy is the prevention of acetylcholine-induced abdominal constriction in mice (H. Collier et al., Br. J. Pharmacol., 32, 295 (1968)).
# Mice, intubated with various doses of tramadol hydrochloride alone, acetaminophen alone, combined doses of tramadol hydrochloride and acetaminophen, or vehicle such as distilled water, or distilled water containing 2% by volume of Tween 80, were injected intraperitoneally with a challenge dose of acetylcholine bromide. The acetylcholine was completely dissolved in distilled water at a concentration of […] and injected at the rate of 0.20 mL/20 g. For scoring purposes an “abdominal constriction” was defined as a contraction of the abdominal musculature accompanied by arching of the back and extension of the limbs. The mice were observed 10 minutes for the presence or absence of the abdominal constriction response beginning immediately after receiving the acetylcholine dose, which was 30 minutes after receiving the oral administration of tramadol hydrochloride, acetaminophen, combined doses of tramadol hydrochloride and acetaminophen, or vehicle. Each mouse was used only once.
# The analysis of possible superadditivity for the compositions at each fixed ratio was determined as disclosed by R. J. Tallarida et al., Life Sci., 45, 947 (1989). This procedure involved the determination of the total amount in the mixture that is required to produce a specified level of effect, such as 50% (ED50mix), and the corresponding total amount that would be expected under simple additivity (ED50add). Where it was established that ED50mix<ED50add for a specific fixed-ratio, then that composition ratio was superadditive. Both the quantities ED50mix and ED50add were random variables; ED50mix was estimated from the dose-response curve for a specific fixed-ratio; ED50add was obtained by combining the ED50 estimates for the two drugs under additivity. ED50mix was then compared to ED50add via a Student's t-test.
# The interaction between tramadol and acetaminophen was determined at precise dosage ratios of tramadol hydrochloride and acetaminophen. Multiple (typically 4-6) coded doses of each selected combination were studied for analgesic effectiveness after 30 minutes using an experimental design which permitted the complete randomization of the separate dosage forms tested.
# In FIG. 1, the diagonal line joining the ED50 values of the two drugs given separately represents the simple additivity of effects at different component ratios. The dotted lines adjacent to the diagonal line define the 95% confidence interval. ED50 values falling under the curve (between the line and the origin) indicate superadditivity, i.e., unexpected enhancement of effects. The diagonal dashed lines radiating from the origin represent the dose ratios of APAP to tramadol hydrochloride used in mice receiving the combined drug dosages. The bars through the ED50 points for the tramadol and APAP composition represent the 95% confidence intervals of the ED50 value.
smiles,measurement,setting,value
"CC(=O)Nc1ccc(O)cc1 [APAP only, acetaminophen]",ED50,"APAP component of the ED50, p.o., 30 min after dosing, read-out: ED50 30 min (95% CI's) APAP",164 mg/kg
same,analgesia,"dose Tramadol 0 + APAP 30 mg/kg, p.o.",2/15
same,analgesia,"dose Tramadol 0 + APAP 40 mg/kg, p.o.",12/43
same,analgesia,"dose Tramadol 0 + APAP 50 mg/kg, p.o.",1/15
same,analgesia,"dose Tramadol 0 + APAP 60 mg/kg, p.o.",8/30
same,analgesia,"dose Tramadol 0 + APAP 80 mg/kg, p.o.",23/60
same,analgesia,"dose Tramadol 0 + APAP 100 mg/kg, p.o.",13/30
same,analgesia,"dose Tramadol 0 + APAP 120 mg/kg, p.o.",13/30
same,analgesia,"dose Tramadol 0 + APAP 160 mg/kg, p.o.",10/30
same,analgesia,"dose Tramadol 0 + APAP 200 mg/kg, p.o.",13/25
same,analgesia,"dose Tramadol 0 + APAP 240 mg/kg, p.o.",14/25
same,analgesia,"dose Tramadol 0 + APAP 400 mg/kg, p.o.",12/15
same,analgesia,"dose Tramadol 0 + APAP 800 mg/kg, p.o.",13/15
"COc1cccc([C@@]2(O)CCCC[C@@H]2CN(C)C)c1 (racemic) [tramadol only, (1RS, 2RS)-[(dimethylamino)-methyl]-1-(3-methoxy-phenyl)cyclohexanol]",ED50,read-out: ED50 30 min (95% CI's) Tramadol,5.5 mg/kg
same,analgesia,"dose Tramadol 2 + APAP 0 mg/kg, p.o.",3/15
same,analgesia,"dose Tramadol 3 + APAP 0 mg/kg, p.o.",4/15
same,analgesia,"dose Tramadol 4 + APAP 0 mg/kg, p.o.",14/45
same,analgesia,"dose Tramadol 6 + APAP 0 mg/kg, p.o.",20/45
same,analgesia,"dose Tramadol 8 + APAP 0 mg/kg, p.o.",40/60
same,analgesia,"dose Tramadol 10 + APAP 0 mg/kg, p.o.",15/15
same,analgesia,"dose Tramadol 16 + APAP 0 mg/kg, p.o.",14/15
